{"source": "patent US20100303877A1", "about": "“Controlled Release Hydrogel Films” (Board of Regents, The University of Texas System, priority 2009, published 2010)", "origin": "cited, not measured here", "system": "mammalian cells"}
{"compound": "[Ag+]", "note": "[Ag^+, silver ions]", "values": [{"measurement": "silver ion concentration above which cytotoxicity occurs", "value": "> 10", "unit": "mg per liter"}]}
